Results taken from patent publication US9695155B2, “Herbicidal substituted pyrimidinyloxy benzene compounds” (E. I. DU PONT DE NEMOURS AND COMPANY, priority 2013, dated 2017).

Key:
[1] = tested on: wheat; assay: Test A postemergence; assay type: in vivo, Triticum aestivum
In short: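 Pre- and postemergence greenhouse screen. Soil: loam + sand. Spray carrier: solvent mixture, non-phytotoxic, with surfactant. Post timing at 1–2 leaves, height 2–10 cm. Readout: visual injury on a 0–100 scale roughly 10 days after application, untreated plants as reference.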

[2] = tested on: sedge, umbrella; assay: Test B flooded paddy test; assay type: in vivo, Cyperus difformis; settings: Flood, 250 g ai/ha; 0 to 100 scale where 0 is no effect and 100 is complete control
In short: (§1)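 Plants were grown to the 2-leaf stage, then pots were flooded to 3 cm above the soil and compounds were applied directly into the paddy water. That depth was held throughout, and after 13 to 15 days in the greenhouse injury was rated visually against controls on a 0–100 scale (0 no effect, 100 complete control).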

[3] = tested on: Heteranthera limosa; assay: Test B flooded paddy test; assay type: in vivo; settings: Flood, 250 g ai/ha; 0 to 100 scale where 0 is no effect and 100 is complete control
In short: as §1

[4] = tested on: blackgrass; assay: Test C preemergence; assay type: in vivo, Alopecurus myosuroides; settings: for Blackgrass plant response rating: preemergence; for Plant response rating, Blackgrass: Preemergence, 31 g ai/ha, scale 0 to 100, 0 no effect, 100 complete control
In short: (§2)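 Preemergence: seeds sown in a loam soil–sand blend and sprayed with test chemical in a non-phytotoxic solvent mixture containing surfactant. Postemergence: plants at 2 to 18 cm (1- to 4-leaf stage) in peat-based medium, treated with the same formulation. Greenhouse 13 to 15 days, then visual rating 0 (no effect) to 100 (complete control).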

[5] = tested on: Italian ryegrass; assay: Test C preemergence; assay type: in vivo, Lolium multiflorum; settings: preemergence
In short: as §2

[6] = tested on: wheat, winter; assay: Test C preemergence; assay type: in vivo, Triticum aestivum; settings: preemergence
In short: as §2

[7] = tested on: johnsongrass; assay: Test C preemergence; assay type: in vivo, Sorghum halepense; settings: preemergence
In short: as §2

[8] = tested on: ragweed; assay: Test C preemergence; assay type: in vivo, Ambrosia elatior; settings: preemergence
In short: as §2

[9] = tested on: velvetleaf; assay: Test C preemergence; assay type: in vivo, Abutilon theophrasti; settings: preemergence
In short: as §2

[10] = tested on: pigweed; assay: Test C postemergence; assay type: in vivo, Amaranthus retroflexus; settings: for Plant response rating (0 to 100), Pigweed: 16 g ai/ha, 0 is no effect, 100 is complete control; for Pigweed plant response rating: 31 g ai/ha, 13 to 15 days; for Pigweed plant response rating / Plant response rating, Pigweed: scale 0 to 100 (0 no effect, 100 complete control)
In short: as §2

[11] = tested on: waterhemp; assay: Test C postemergence; assay type: in vivo, Amaranthus rudis; settings: for Plant response rating (0 to 100), Waterhemp: 16 g ai/ha, 0 is no effect, 100 is complete control; for Waterhemp plant response rating: 31 g ai/ha, 13 to 15 days; for Waterhemp plant response rating / Plant response rating, Waterhemp: scale 0 to 100 (0 no effect, 100 complete control)
In short: as §2

[12] = 16 g ai/ha, scale 0 to 100 (0 no effect, 100 complete control)
[13] = 62 g ai/ha, scale 0 (no effect) to 100 (complete control)
[14] = 125 g ai/ha, scale 0 (no effect) to 100 (complete control)
[15] = 125 g ai/ha, postemergence, visual rating

Structure (SMILES)	Plant response rating, Sedge, Umbrella [2]	Plant response rating, Ducksalad [3]	Blackgrass plant response rating [4, 12]	Blackgrass plant response rating [4, 13]	Blackgrass plant response rating [4, 14]	Plant response rating, Blackgrass [4]	Ryegrass, Italian plant response rating [5, 12]	Ryegrass, Italian plant response rating [5, 13]	Ryegrass, Italian plant response rating [5, 14]	Wheat plant response rating [6, 12]	Wheat plant response rating [6, 13]	Wheat plant response rating [6, 14]	Johnsongrass plant response rating [7, 12]	Johnsongrass plant response rating [7, 13]	Johnsongrass plant response rating [7, 14]	Ragweed plant response rating [8, 12]	Ragweed plant response rating [8, 13]	Ragweed plant response rating [8, 14]	Velvetleaf plant response rating [9, 12]	Velvetleaf plant response rating [9, 13]	further results
CCCOc1cnn(-c2c(C#N)cccc2Oc2ncc(Cl)cn2)c1 [Compound 150]	85	90	0	50	50	10	0	30	50	0	5	5	0	70	80	0	25	55	5	60	Wheat plant response rating ([1]; 125 g ai/ha, 0 to 100 scale where 0 is no effect and 100 is complete control): 30; Plant response rating, Wheat ([1]; 500 g ai/ha, 0 to 100 scale where 0 is no effect and 100 is complete control): 90; Velvetleaf plant response rating [9, 14]: 70; Plant response rating (0 to 100), Pigweed ([10]; postemergence): 40; Pigweed plant response rating ([10]; postemergence, visual rating): 55; Plant response rating, Pigweed [10, 15]: 65; Plant response rating, Pigweed ([10]; Postemergence, 62 g ai/ha): 55; Plant response rating (0 to 100), Waterhemp ([11]; postemergence): 35; Waterhemp plant response rating ([11]; postemergence, visual rating): 35; Plant response rating, Waterhemp [11, 15]: 65; Plant response rating, Waterhemp ([11]; Postemergence, 62 g ai/ha): 35
FCc1cn(-c2c(F)cccc2Oc2ncc(Cl)cn2)nn1 [Compound 154]	30	80	0	20	90	10	0	20	25	0	0	5	0	40	85	75	95	90	85	100	Plant response rating, Wheat ([1]; 1000 g ai/ha, 0 to 100 scale, 0 no effect, 100 complete control): 80; Velvetleaf plant response rating [9, 14]: 100; Plant response rating (0 to 100), Pigweed ([10]; postemergence): 25; Pigweed plant response rating ([10]; postemergence, visual rating): 30; Plant response rating, Pigweed [10, 15]: 75; Plant response rating, Pigweed ([10]; Postemergence, 62 g ai/ha): 60; Plant response rating (0 to 100), Waterhemp ([11]; postemergence): 5; Waterhemp plant response rating ([11]; postemergence, visual rating): 60; Plant response rating, Waterhemp [11, 15]: 70; Plant response rating, Waterhemp ([11]; Postemergence, 62 g ai/ha): 65
